One experiment relates to MYC T-ALL 4188 cells. Briefly: Chemotherapeutic drug treatment of MYC T-ALL cells, surface protein levels by flow cytometry. As to conditions: for CD3 expression / CD8 expression / CD25 expression / CD69 expression / CD47 expression / PD-L1 expression: MYC T-ALL 4188 cells, 10 μM; for CD3 expression / CD8 expression / CD25 expression / CD69 expression: flow cytometry; for CD47 expression / PD-L1 expression: flow cytometry MFI; for tumor cell death: MYC T-ALL cells, 10 μM each. Type of experiment: cell-based, mouse. As for the experimental part:
(§1) Hematopoietic tumor cell lines (MYC T-ALL 4188 cells derived from the transgenic mouse model, human P493-6, human T-ALL Jurkat, and human T-ALL CCRF-CEM) were grown in RPMI 1640 supplemented with 10% FBS, 1% penicillin/streptomycin, 50 μM 2-mercaptoethanol at 37° C. in 5% CO2. Solid human tumor cell lines (H1299, SKMEL28), mouse MYC HCC, and human HEPG2 were grown in DMEM supplemented with 10% FBS and 1% penicillin/streptomycin at 37° C. in 5% CO2. To turn off expression of the MYC transgene, cells were treated with 20 ng/mL Dox. Primary human T-ALL cells were obtained from four deidentified patient samples and were cultured as previously described (Bruserud et al. 2003). Briefly, cells were cultured in StemSpan H3000 (StemCell) supplemented with human stem cell factor (50 ng/ml), human IL-7 (20 ng/ml), human IL-3 (20 ng/ml), and human FLT3 ligand (20 ng/ml) (Peprotech). Human cell lines were purchased from ATCC.
(§2) Tissues were manually dissociated between microscope slides and strained to remove debris. Lysis buffer (0.15 M NH4Cl, 10 mM KHCO3, 0.1 mM EDTA pH 7.3) was used to remove red blood cells. Cells were washed and resuspended in cold flow cytometry buffer (1% FBS, 0.1% sodium azide in PBS). Staining was performed according to manufacturer instructions with the indicated antibodies (eBioscience). Labeled cells were analyzed on a FACSCalibur (Becton Dickinson), and data was analyzed using FlowJo (Treestar). Each plot is representative of three or more animals. Annexin-V and 7-AAD were used according to manufacturer's protocol (eBioscience).
FIG. 7A: CD47 and PD-L1 protein levels in MYC T-ALL 4188 cells treated with prednisone, cytoxan, cisplatin, or vincristine (10 μM each) were quantified by flow cytometry MFI. Means±SEM are shown, n=3. FIG. 7B-7E: CD3, CD8, CD25, and CD69 protein levels in MYC T-ALL 4188 cells treated as in FIG. 7A were quantified by flow cytometry. Means±SEM are shown (n=3).
On the technique in general: A flow cytometer gives signals particle by particle.

The subject of experiment [1] is cells derived from mouse MYC-driven HCC. Kind of experiment: CD47 and PD-L1 protein levels in mouse MYC-driven HCC cells after chemotherapy treatment. It is filed as cell-based. Particulars: flow cytometry MFI. As to the method:
as §1, with “Briefly, cells were cultured in StemSpan H3000 (StemCell) supplemented with human stem cell factor (50 ng/ml), human IL-7 (20 ng/ml), human IL-3 (20 ng/ml), and human FLT3 ligand (20 ng/ml) (Peprotech). Human cell lines were purchased from ATCC.” left out
(§3) Tissues were manually dissociated between microscope slides and strained to remove debris. […] Labeled cells were analyzed on a FACSCalibur (Becton Dickinson), and data was analyzed using FlowJo (Treestar). […]
FIG. 8A: CD47 and PD-L1 protein levels in cells derived from mouse MYC-driven HCC, following MYC inactivation or chemotherapy treatment, were quantified by flow cytometry MFI (n=3). FIG. 8B: CD47 and PD-L1 mRNA levels were quantified by qPCR and protein levels were quantified by flow cytometry in primary tumors from mouse MYC-driven HCC, following MYC inactivation (n=3 tumors per condition). […]

Experiment [2] concerns primary human T-ALL cells. Briefly: CD47, PD-L1, CD8 and MYC expression in primary human T-ALL samples. It is filed as cell-based. Particulars: 48 h; for CD8 expression / CD47 cell surface expression / PD-L1 cell surface expression: four primary human T-ALL samples, flow cytometry MFI, 10 μM JQ1, 10 μM cisplatin or shRNA. As for the experimental part: as §1
(§4) shRNA-mediated knockdowns were performed with the pLKO.1 lentiviral vector containing either control, CD47, or PD-L1-specific shRNA. shRNA-mediated knockdown of human MYC was performed with the pLKO.1 lentiviral vector containing a scrambled control or MYC shRNA (Sigma). PD-L1 shRNA on a pLKO.1-puro backbone was purchased from Sigma and CD47 shRNA (Sigma) was cloned into a pLKO.1-Hygro backbone (Addgene). The plasmids were transfected into packaging cells and virus-containing medium supernatants were used to infect tumor cells using polybrene methodology. For conditional knockdowns, stable cell lines were generated and the time course following MYC inactivation with 20 ng/mL Dox is indicated. For stable knockdowns, the time course is indicated as the time post-viral infection.
(§5) All tissues and cells were flash-frozen in liquid nitrogen and stored at −80° C. until RNA preparation. RNA was isolated using the TRIzol Reagent (Invitrogen) according to manufacturer instructions. cDNA was synthesized using SuperScriptIII (ThermoFisher). qPCR was performed using specific primers (Table 51) and the SYBR Green qPCR Kit (Roche) in an Applied Biosystems Real-Time PCR System (Life Technologies) with QuantStudio12K Flex Software. Data was analyzed using the cycle threshold method (normalized to UBC). A minimum of 3 biological and 3 technical replicates were used for all qPCR experiments.
as §2
FIG. 6A-6B: MYC mRNA levels before and after treatment with shRNA against MYC or treatment with JQ1. MYC mRNA was measured by qPCR in human T-ALL cell lines (A, n=3) and primary human T-ALL (B, n=4) cells following MYC inhibition by shRNA or JQ1 treatment after the indicated number of hours (0-48 h for human T-ALL cell lines, 48 h for primary T-ALL).
FIG. 9A: CD47 and PD-L1 protein levels in primary human T-ALL tumor samples were quantified by flow cytometry, following 48 h treatment with control scramble shRNA or MYC-targeting shRNA. FIG. 9B: CD47, PD-L1, or CD8 protein levels in primary human T-ALL tumor samples were quantified by flow cytometry MFI, following 48 h treatment with control scramble shRNA or MYC-targeting shRNA, or treatment with 10 μM JQ1 or 10 μM cisplatin (n=4 distinct patient samples). Means±SEM are shown.

Experiment [3] deals with human T-ALL cell line CCRF-CEM. Kind of experiment: CD47, PD-L1 and MYC expression in CCRF-CEM cells after MYC inhibition. Type of experiment: cell-based. As for the experimental part:
as §1, with “ATCC. […]” for “ATCC.”
(§6) All tissues and cells were flash-frozen in liquid nitrogen and stored at −80° C. until RNA preparation. […] Data was analyzed using the cycle threshold method (normalized to UBC). […]
as §3
(§7) FIG. 1A: Flow cytometry median fluorescence intensity (MFI) was used to determine the relative cell surface expression of CD47, PD-L1, and other immune proteins following MYC inactivation in MYC T-ALL 4188 cells in vitro (n=3). FIG. 1B: Tumors were harvested from primary MYC-driven lymphomas 0 or 4 days following MYC inactivation. mRNA and protein levels were quantified by qPCR and flow cytometry MFI (n=3 tumors per condition). […] FIG. 1C: CD47 and PD-L1 protein levels in Jurkat and CCRF-CEM cells were quantified by flow cytometry MFI following MYC inhibition by conditional shRNA knockdown or 10 μM JQ1 treatment (n=3 biological replicates). […]

Experiment [4] has as its system human T-ALL cell line Jurkat. Briefly: CD47, PD-L1 and MYC expression in Jurkat cells after MYC inhibition. Type of experiment: cell-based. As to the method: as §1, with “ATCC. […]” for “ATCC.”
as §6, §3, §7

Experiment [5] relates to human melanoma cell line SKMEL28. Briefly: CD47 and PD-L1 mRNA and protein in SKMEL28 cells after MYC inactivation. It is filed as cell-based. As to conditions: 48 hours, 10 μM JQ1 or MYC shRNA knockdown. As for the experimental part: as §1, §4, §5, §3
(§8) FIG. 2A and FIG. 2B: The mRNA and protein levels of MYC, CD47, and PD-L1 in human melanoma SKMEL28 and human NSCLC H1299 cells were determined by qPCR and flow cytometry MFI, respectively, 48 hours after MYC inactivation in vitro. […]

The test system of experiment [6] is human non-small cell lung cancer (NSCLC) cell line H1299. Kind of experiment: CD47 and PD-L1 mRNA and protein in H1299 cells after MYC inactivation. It is filed as cell-based. As to conditions: 48 hours, 10 μM JQ1 or MYC shRNA knockdown. As for the experimental part:
as §1, §4, §5, §3, §8

Setting [7] is: CCRF-CEM, protein by flow cytometry MFI, conditional shRNA knockdown or 10 μM JQ1.
[8] abbreviates: human T-ALL cell lines, qPCR, 0-48 h.
Setting [9] is: Jurkat, protein by flow cytometry MFI, conditional shRNA knockdown or 10 μM JQ1.

We go through five compounds from patent US20190085404A1, “METHODS OF IDENTIFYING AND TREATING IMMUNE CHECKPOINT INHIBITOR-RESPONSIVE NEOPLASMS AND CELLS, TRANSGENIC ANIMALS AND KITS FOR USE THEREIN” (The Board of Trustees of the Leland Stanford Junior …, priority 2016, published 2019).

SMILES strings stand for the structures.

For the compound `O=P1(N(CCCl)CCCl)NCCCO1` (stereo not drawn) [cytoxan], in the experiment on MYC T-ALL 4188 cells, the CD3 expression entry is given as “no effect”, the CD8 expression result is “no effect”, the CD25 expression result was “no effect” and the CD69 expression result is listed as “no effect”. Also, in the experiment on MYC T-ALL 4188 cells, the CD47 expression result is “either unaffected or showed increased expression”, the PD-L1 expression entry is given as “either unaffected or showed increased expression” and the tumor cell death result was “tumor cell death”.

Consider `N.N.[Cl][Pt][Cl]` [cisplatin], for which, in the experiment with MYC T-ALL 4188 cells, the CD3 expression entry is “no effect”, the CD8 expression result is listed as “no effect”, the CD25 expression entry is listed as “no effect” and the CD69 expression result is “no effect”. In the experiment on MYC T-ALL 4188 cells, the CD47 expression result was “either unaffected or showed increased expression”, the PD-L1 expression result is reported as “either unaffected or showed increased expression” and the tumor cell death entry was “tumor cell death”. Moreover, in experiment [1], the “expression of CD47 protein” value is “unaffected” and the “expression of PD-L1 protein” value is recorded as “unaffected”. In experiment [2], the CD8 expression result is on record as “unaffected”, the “CD47 cell surface expression” value is reported as “increased” and the “PD-L1 cell surface expression” value is reported as “increased”.

Consider `CC[C@]1(O)C[C@H]2CN(CCc3c([nH]c4ccccc34)[C@@](C(=O)OC)(c3cc4c(cc3OC)N(C=O)[C@H]3[C@@](O)(C(=O)OC)[C@H](OC(C)=O)[C@]5(CC)C=CCN6CC[C@]43[C@@H]65)C2)C1` [vincristine], for which, in the experiment on MYC T-ALL 4188 cells, the CD3 expression result is “no effect”, the CD8 expression result was “no effect”, the CD25 expression result is “no effect” and the CD69 expression result was “no effect”. Besides, in the experiment with MYC T-ALL 4188 cells, the CD47 expression entry was “either unaffected or showed increased expression”, the PD-L1 expression entry is recorded as “either unaffected or showed increased expression” and the tumor cell death entry is reported as “tumor cell death”.

Regarding `C[C@]12C=CC(=O)C=C1CC[C@@H]1[C@@H]2C(=O)C[C@@]2(C)[C@H]1CC[C@]2(O)C(=O)CO` [prednisone], in the experiment on MYC T-ALL 4188 cells, the CD3 expression entry is reported as “no effect”, the CD8 expression result is “no effect”, the CD25 expression entry was “no effect” and the CD69 expression entry was “no effect”. In addition, in the experiment with MYC T-ALL 4188 cells, the CD47 expression result is “either unaffected or showed increased expression”, the PD-L1 expression entry is “either unaffected or showed increased expression” and the tumor cell death entry is listed as “tumor cell death”.

As for `Cc1sc2c(c1C)C(c1ccc(Cl)cc1)=N[C@@H](CC(=O)OC(C)(C)C)c1nnc(C)n1-2` [JQ1], the “expression of CD47” value in experiment [3] (setting [7]) and in experiment [4] (setting [9]) was “reduced” throughout. Besides, the “expression of PD-L1” value in experiment [3] (setting [7]) and in experiment [4] (setting [9]) was “reduced” in each case. Moreover, the “expression of MYC mRNA” value is reported as “reduced” in experiment [3] (setting [8]); “reduced” in experiment [4] (setting [8]); “reduced” in experiment [2] (primary human T-ALL cells, qPCR). Also, the “expression of CD47 protein” value in experiment [5] (flow cytometry MFI) and in experiment [6] (flow cytometry MFI) was “reduced” each time. The “expression of PD-L1 protein” value in experiment [5] (flow cytometry MFI) and in experiment [6] (flow cytometry MFI) was “reduced” each time. For the same compound, the “expression of CD47 mRNA” value in experiment [5] (qPCR) and in experiment [6] (qPCR) was “reduced” in each case. The “expression of PD-L1 mRNA” value in experiment [5] (qPCR) and in experiment [6] (qPCR) was “reduced” throughout. Besides, the CD8 expression entry in experiment [2] was “unaffected”. For the same compound, the “CD47 cell surface expression” value in experiment [2] was “reduced”. Further, in experiment [2], the “PD-L1 cell surface expression” value is reported as “reduced”.
